{"source": "ChEMBL document CHEMBL5532665", "about": "(J Med Chem, 2024)", "key": {"[1]": {"system": "Mus musculus", "experiment": "Antinociceptive activity in Kunming mouse model assessed as latency of tail withdrawal at 14157 nmol/kg, sc measured for 60 mins by tail-flick test relative to control", "type": "functional", "conditions": "1 h"}, "[2]": {"system": "Mus musculus", "experiment": "Antinociceptive activity in Kunming mouse model assessed as latency of tail withdrawal at 14157 nmol/kg, sc measured for 120 mins by tail-flick test relative to control", "type": "functional", "conditions": "2 h"}, "[3]": {"molecular_target": "T1, Mu-type opioid receptor (Homo sapiens, UniProt P35372)", "T1 sequence (P35372 whole entry)": "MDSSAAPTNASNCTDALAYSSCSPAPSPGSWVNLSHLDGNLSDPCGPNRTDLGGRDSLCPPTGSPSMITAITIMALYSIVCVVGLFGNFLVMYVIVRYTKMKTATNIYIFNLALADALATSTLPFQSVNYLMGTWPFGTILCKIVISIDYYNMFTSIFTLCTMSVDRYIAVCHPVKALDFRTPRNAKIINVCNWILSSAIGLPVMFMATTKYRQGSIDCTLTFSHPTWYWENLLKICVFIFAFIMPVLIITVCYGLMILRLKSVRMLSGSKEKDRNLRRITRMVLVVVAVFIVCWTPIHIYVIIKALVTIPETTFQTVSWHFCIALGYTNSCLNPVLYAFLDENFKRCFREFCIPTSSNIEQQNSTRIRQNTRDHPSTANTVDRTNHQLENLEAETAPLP", "experiment": "Agonist activity at human MOR expressed in CHO-K1 cells co-expressing G-alpha15 by calcium mobilization assay relative to control", "type": "functional, cell-based", "conditions": "filed as agonist"}, "[4]": {"molecular_target": "T1, Mu-type opioid receptor", "experiment": "Agonist activity at human MOR expressed in CHO-K1 cells co-expressing G-alpha15 by calcium mobilization assay", "type": "functional, cell-based"}, "[5]": {"system": "Mus musculus", "experiment": "Antinociceptive activity in Kunming mouse model assessed as latency of tail withdrawal at 14157 nmol/kg, sc measured for 30 mins by tail-flick test relative to control", "type": "functional", "conditions": "0.5 h"}, "[6]": {"molecular_target": "T2, Delta-type opioid receptor (Homo sapiens, UniProt P41143)", "T2 sequence (P41143 whole entry)": "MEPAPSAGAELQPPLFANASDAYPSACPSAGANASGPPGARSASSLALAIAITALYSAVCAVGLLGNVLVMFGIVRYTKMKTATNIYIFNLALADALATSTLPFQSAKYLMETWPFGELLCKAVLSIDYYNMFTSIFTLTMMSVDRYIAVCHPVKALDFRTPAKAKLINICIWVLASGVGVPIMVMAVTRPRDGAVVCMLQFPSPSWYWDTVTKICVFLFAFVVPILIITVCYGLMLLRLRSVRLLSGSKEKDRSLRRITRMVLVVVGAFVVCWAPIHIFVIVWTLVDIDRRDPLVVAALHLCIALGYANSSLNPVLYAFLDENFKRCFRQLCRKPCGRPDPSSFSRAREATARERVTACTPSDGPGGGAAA", "experiment": "Agonist activity at human DOR expressed in CHO-K1 cells co-expressing G-alpha15 by calcium mobilization assay", "type": "functional, cell-based"}, "[7]": {"molecular_target": "T2, Delta-type opioid receptor", "experiment": "Agonist activity at human DOR expressed in CHO-K1 cells co-expressing G-alpha15 by calcium mobilization assay relative to control", "type": "functional, cell-based", "conditions": "filed as agonist"}, "[8]": {"experiment": "Stability in mouse plasma assessed as half life at 0.01 mol/L measured for 72 hrs by RP-HPLC analysis", "type": "ADME, cell-free"}, "[9]": {"system": "Mus musculus", "experiment": "Antinociceptive activity in Kunming mouse model assessed as latency of tail withdrawal at 14157 nmol/kg, sc measured for 10 mins by tail-flick test relative to control", "type": "functional"}, "[10]": {"system": "Mus musculus", "experiment": "Antinociceptive activity in Kunming mouse model assessed as latency of tail withdrawal at 132.2 nmol/kg, sc measured for 30 mins by tail-flick test relative to control", "type": "functional", "conditions": "0.5 h"}, "[11]": {"system": "Mus musculus", "experiment": "Antinociceptive activity in Kunming mouse model assessed as latency of tail withdrawal at 132.2 nmol/kg, sc measured for 60 mins by tail-flick test relative to control", "type": "functional", "conditions": "1 h"}, "[12]": {"system": "Mus musculus", "experiment": "Antinociceptive activity in Kunming mouse model assessed as latency of tail withdrawal at 132.2 nmol/kg, sc measured for 120 mins by tail-flick test relative to control", "type": "functional", "conditions": "2 h"}, "[13]": {"system": "Mus musculus", "experiment": "Antinociceptive activity in Kunming mouse model assessed as latency of tail withdrawal at 132.2 nmol/kg, sc measured for 10 mins by tail-flick test relative to control", "type": "functional"}, "[14]": {"system": "Mus musculus", "experiment": "Antinociceptive activity in Kunming mouse model assessed as latency of tail withdrawal at 1404 nmol/kg, sc measured for 10 mins by tail-flick test relative to control", "type": "functional"}, "[15]": {"system": "Mus musculus", "experiment": "Antinociceptive activity in Kunming mouse model assessed as latency of tail withdrawal at 1404 nmol/kg, sc measured for 120 mins by tail-flick test relative to control", "type": "functional", "conditions": "2 h"}, "[16]": {"system": "Mus musculus", "experiment": "Antinociceptive activity in Kunming mouse model assessed as latency of tail withdrawal at 1404 nmol/kg, sc measured for 30 mins by tail-flick test relative to control", "type": "functional", "conditions": "0.5 h"}, "[17]": {"system": "Mus musculus", "experiment": "Antinociceptive activity in Kunming mouse model assessed as latency of tail withdrawal at 1404 nmol/kg, sc measured for 60 mins by tail-flick test relative to control", "type": "functional", "conditions": "1 h"}, "[18]": {"system": "Mus musculus", "experiment": "Antinociceptive activity in Kunming mouse model assessed as latency of tail withdrawal at 15007 nmol/kg, sc measured for 10 mins by tail-flick test relative to control", "type": "functional"}, "[19]": {"system": "Mus musculus", "experiment": "Antinociceptive activity in Kunming mouse model assessed as latency of tail withdrawal at 15007 nmol/kg, sc measured for 120 mins by tail-flick test relative to control", "type": "functional", "conditions": "2 h"}, "[20]": {"system": "Mus musculus", "experiment": "Antinociceptive activity in Kunming mouse model assessed as latency of tail withdrawal at 15007 nmol/kg, sc measured for 30 mins by tail-flick test relative to control", "type": "functional", "conditions": "0.5 h"}, "[21]": {"system": "Mus musculus", "experiment": "Antinociceptive activity in Kunming mouse model assessed as latency of tail withdrawal at 15007 nmol/kg, sc measured for 60 mins by tail-flick test relative to control", "type": "functional", "conditions": "1 h"}, "[22]": {"system": "Mus musculus", "experiment": "Antinociceptive activity in Kunming mouse model administered subcutaneously by tail-flick test", "type": "functional", "conditions": "route sc"}, "[23]": {"system": "Mus musculus", "experiment": "Antinociceptive activity in Kunming mouse model administered subcutaneously measured for 5 to 15 mins by acetic acid-induced writhing test", "type": "functional", "conditions": "route sc, time 5-15 min"}, "[24]": {"system": "Mus musculus", "experiment": "Antinociceptive activity in Kunming mouse model assessed as latency of tail withdrawal at 1.4 nmol/kg, sc measured for 60 mins by tail-flick test relative to control", "type": "functional", "conditions": "1 h"}, "[25]": {"system": "Mus musculus", "experiment": "Antinociceptive activity in Kunming mouse model assessed as latency of tail withdrawal at 1.4 nmol/kg, sc measured for 30 mins by tail-flick test relative to control", "type": "functional", "conditions": "0.5 h"}, "[26]": {"system": "Mus musculus", "experiment": "Antinociceptive activity in Kunming mouse model assessed as latency of tail withdrawal at 1.4 nmol/kg, sc measured for 120 mins by tail-flick test relative to control", "type": "functional", "conditions": "2 h"}, "[27]": {"system": "Mus musculus", "experiment": "Antinociceptive activity in Kunming mouse model administered orally by tail-flick test", "type": "functional", "conditions": "route po"}, "[28]": {"system": "Mus musculus", "experiment": "Inhibition of gastrointestinal motility in fasted Kunming mouse model treated subcutaneously for 15 mins followed by charcoal-gum arabic treatment measured after 30 mins", "type": "functional", "conditions": "0.75 h, route sc, time 45 min"}, "[29]": {"system": "Mus musculus", "experiment": "Antinociceptive activity in Kunming mouse model assessed as latency of tail withdrawal at 1.4 nmol/kg, sc measured for 10 mins by tail-flick test relative to control", "type": "functional"}}, "data": [{"compound": "N[C@@H](Cc1ccc(O)cc1)C(=O)N[C@@H]1CCCCNC(=O)C[C@H](C(=O)N2CCC[C@H]2C(=O)O)NC(=O)[C@H](Cc2ccccc2)NC(=O)CNC1=O", "values": [{"measurement": "MPE", "setting": "[1]", "value": 77, "unit": "%"}, {"measurement": "MPE", "setting": "[2]", "value": 37.3, "unit": "%"}, {"measurement": "Emax", "setting": "[3]", "value": 94.8, "unit": "%"}, {"measurement": "EC50", "setting": "[4]", "value": 3.8, "unit": "nM"}, {"measurement": "MPE", "setting": "[5]", "value": 97.4, "unit": "%"}, {"measurement": "EC50", "setting": "[6]", "value": 3.3, "unit": "nM"}, {"measurement": "Emax", "setting": "[7]", "value": 109, "unit": "%"}, {"measurement": "half-life at 0.01 mol/L", "setting": "[8]", "value": 23, "unit": "h"}, {"measurement": "MPE", "setting": "[9]", "value": 65, "unit": "%"}]}, {"compound": "NC(=O)[C@H]1CCCN1C(=O)[C@@H]1CC(=O)NCCCC[C@@H](NC(=O)[C@@H](N)Cc2ccc(O)cc2)C(=O)NCC(=O)N[C@@H](Cc2ccc3ccccc3c2)C(=O)N1", "values": [{"measurement": "MPE", "setting": "[10]", "value": 94.8, "unit": "%"}, {"measurement": "MPE", "setting": "[11]", "value": 76.9, "unit": "%"}, {"measurement": "MPE", "setting": "[12]", "value": 26.8, "unit": "%"}, {"measurement": "MPE", "setting": "[13]", "value": 78.1, "unit": "%"}]}, {"compound": "NC(=O)[C@H]1CCCN1C(=O)[C@@H]1CC(=O)NCCCC[C@@H](NC(=O)[C@@H](N)Cc2ccc(O)cc2)C(=O)NCC(=O)N[C@@H](CC2CCCCC2)C(=O)N1", "values": [{"measurement": "MPE", "setting": "[14]", "value": 61.9, "unit": "%"}, {"measurement": "MPE", "setting": "[15]", "value": 36.1, "unit": "%"}, {"measurement": "MPE", "setting": "[16]", "value": 92.4, "unit": "%"}, {"measurement": "MPE", "setting": "[17]", "value": 74.3, "unit": "%"}]}, {"compound": "NC(=O)CNC(=O)[C@@H]1CC(=O)NCCCC[C@@H](NC(=O)[C@@H](N)Cc2ccc(O)cc2)C(=O)NCC(=O)N[C@@H](Cc2ccccc2)C(=O)N1", "values": [{"measurement": "MPE", "setting": "[18]", "value": 73.4, "unit": "%"}, {"measurement": "MPE", "setting": "[19]", "value": 43.1, "unit": "%"}, {"measurement": "MPE", "setting": "[20]", "value": 92.5, "unit": "%"}, {"measurement": "MPE", "setting": "[21]", "value": 74.1, "unit": "%"}]}, {"compound": "NC(=O)[C@H]1CCCN1C(=O)[C@@H]1CC(=O)NCCCC[C@@H](NC(=O)[C@@H](N)Cc2ccc(O)cc2)C(=O)NCC(=O)N[C@@H](Cc2ccc(F)cc2)C(=O)N1", "values": [{"measurement": "ED50", "setting": "[22]", "value": "8e-05", "unit": "µmol/kg"}, {"measurement": "ED50", "setting": "[23]", "value": 0.0002, "unit": "µmol/kg"}, {"measurement": "MPE", "setting": "[24]", "value": 84.1, "unit": "%"}, {"measurement": "MPE", "setting": "[25]", "value": 93.1, "unit": "%"}, {"measurement": "MPE", "setting": "[26]", "value": 34.3, "unit": "%"}, {"measurement": "ED50", "setting": "[27]", "value": "9e-05", "unit": "µmol/kg"}, {"measurement": "ED50", "setting": "[28]", "value": 0.0044, "unit": "µmol/kg"}, {"measurement": "MPE", "setting": "[29]", "value": 59.2, "unit": "%"}]}]}
